The text below walks through data of patent publication US8975286B2, “Ether benzotriazole derivatives” (Merck Sharp & Dohme Corp., priority 2009, dated 2015).

One may read the EC50 as the concentration at which the effect is half-maximal.

The target of the test is T1, recombinant human mGluR2 (Homo sapiens, UniProt Q14416).
T1 construct: expressed in transfected cells
In words: FLIPR Ca2+ mobilization assay, potentiation of glutamate (EC20) response. The class given is cell-based. The conditions noted are these: CHO dhfr- cells expressing human mGluR2 and Gα16; potentiation with EC20 glutamate (900 nM); read-out: Representative FLIPR EC50 Values. The protocol:
Potencies are determined as follows. The compounds of the present invention may be tested in a fluorescence laser imaging plate reader (FLIPR) based assay. This assay is a common functional assay to monitor Ca^2+ mobilization in whole cells expressing recombinant receptor coupled with a promiscuous G-protein. CHO dhfr− cells stably expressing recombinant human mGluR2 and Gα16 loaded with Fluo-4 AM (Invitrogen, Carlsbad Calif.) are treated with varying concentrations of compounds and the Ca^2+ response is monitored on a FLIPR384 (Molecular Devices, Sunnydale Calif.) for agonist activity. The potentiation response is monitored after a subsequent addition of an EC20 concentration of glutamate (900 nM). The maximum calcium response at each concentration of compound for agonism or potentiation are plotted as dose responses curves fitted with a four parameters logistic equation giving EC50 and Hill coefficient using the iterative non linear curve fitting software program.

T1 sequence (Q14416 19-872): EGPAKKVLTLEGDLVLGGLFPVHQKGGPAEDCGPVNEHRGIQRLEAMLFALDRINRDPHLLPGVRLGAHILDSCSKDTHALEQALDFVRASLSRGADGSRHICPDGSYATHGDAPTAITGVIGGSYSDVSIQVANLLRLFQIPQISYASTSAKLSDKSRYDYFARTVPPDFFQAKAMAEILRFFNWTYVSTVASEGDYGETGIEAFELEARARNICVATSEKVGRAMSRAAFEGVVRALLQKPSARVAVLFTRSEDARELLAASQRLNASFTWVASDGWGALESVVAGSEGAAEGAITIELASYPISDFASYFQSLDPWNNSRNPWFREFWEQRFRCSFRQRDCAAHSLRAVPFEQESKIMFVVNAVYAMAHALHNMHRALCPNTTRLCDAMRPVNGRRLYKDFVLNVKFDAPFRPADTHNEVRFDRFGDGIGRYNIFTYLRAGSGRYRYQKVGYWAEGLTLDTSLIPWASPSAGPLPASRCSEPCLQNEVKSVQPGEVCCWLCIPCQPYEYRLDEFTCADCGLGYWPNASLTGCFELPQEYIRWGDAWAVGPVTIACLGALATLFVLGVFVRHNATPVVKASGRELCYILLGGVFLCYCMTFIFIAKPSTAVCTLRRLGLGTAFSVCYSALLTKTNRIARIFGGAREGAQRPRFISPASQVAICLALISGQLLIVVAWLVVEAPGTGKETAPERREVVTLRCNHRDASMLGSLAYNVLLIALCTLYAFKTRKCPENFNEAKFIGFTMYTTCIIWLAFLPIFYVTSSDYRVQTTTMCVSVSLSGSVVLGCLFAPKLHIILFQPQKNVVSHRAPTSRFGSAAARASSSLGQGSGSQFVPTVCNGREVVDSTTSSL

Consider `CC(O)c1cccnc1Oc1ccc2c(nnn2CC2CC2)c1C(F)(F)F` (racemic) [Example 418, (±)-1-(2-{[1-(cyclopropylmethyl)-4-(trifluoromethyl)-1H-benzotriazol-5-yl]oxy}pyridin-3-yl)ethanol], for which the concentration giving a half-maximal response (EC50) came out at 49 nM.
The same measure for `CC1CN(Cc2cc(F)cnc2Oc2ccc3c(nnn3CC3CC3)c2Br)CCN1S(C)(=O)=O` (stereo in doubt) [Example 290, 4-bromo-1-(cyclopropylmethyl)-5-[(5-fluoro-3-{[(3R)-3-methyl-4-(methylsulfonyl)piperazin-1-yl]methyl}pyridin-2-yl)oxy]-1H-benzotriazole]: 2 nM; for `OCC(O)c1cccnc1Oc1ccc2c(nnn2CC2CC2)c1Br` (centres unmarked) [Example 52, 1-(2-{[4-bromo-1-(cyclopropylmethyl)-1H-benzotriazol-5-yl]oxy}pyridin-3-yl)ethane-1,2-diol]: 814 nM.
The same measure for `COCC(OC)c1cccnc1Oc1ccc2c(nnn2CC2CC2)c1Br` (centres unmarked) [Example 55, 4-bromo-1-(cyclopropylmethyl)-5-{[3-(1,2-dimethoxyethyl)pyridin-2-yl]oxy}-1H-benzotriazole]: 95 nM.
On to `CC(C)(C)C(O)c1cccnc1Oc1ccc2c(nnn2CC2CC2)c1Br` (centres unmarked) [Example 72, 1-(2-{[4-bromo-1-(cyclopropylmethyl)-1H-benzotriazol-5-yl]oxy}pyridin-3-yl)-2,2-dimethylpropan-1-ol], for which the EC50 amounted to 5 nM.
As to `CC(C)(C)C(O)c1cccnc1Oc1ccc2c(nnn2CC2CC2)c1Br` (centres unmarked) [Example 91, 1-(2-{[4-bromo-1-(cyclopropylmethyl)-1H-benzotriazol-5-yl]oxy}pyridin-3-yl)-2,2-dimethylpropan-1-ol], the EC50 was 6 nM.
Regarding `OC(c1cccnc1Oc1ccc2c(nnn2CC2CC2)c1Br)C1CC1` (centres unmarked) [Example 93, (2-{[4-bromo-1-(cyclopropylmethyl)-1H-benzotriazol-5-yl]oxy}pyridin-3-yl)(cyclopropyl)methanol], the concentration giving a half-maximal response (EC50) was determined as 11 nM.
The figure for `CC(C)(C)Cn1nnc2c(Br)c(Oc3ncccc3C(F)(F)F)ccc21` [Example 111, 4-bromo-1-(2,2-dimethylpropyl)-5-{[3-(trifluoromethyl)pyridin-2-yl]oxy}-1H-benzotriazole] is 64 nM; for `Cc1cccnc1Oc1ccc2c(nnn2CC(C)(C)C)c1Br` [Example 122, 4-bromo-1-(2,2-dimethylpropyl)-5-[(3-methylpyridin-2-yl)oxy]-1H-benzotriazole] it is 80 nM; for `CC(C)(C)Cn1nnc2c(Br)c(Oc3cccc(Br)n3)ccc21` [Example 148, 4-bromo-5-[(6-bromopyridin-2-yl)oxy]-1-(2,2-dimethylpropyl)-1H-benzotriazole] it is 23 nM.
Take `CC(O)c1ncccc1Oc1ccc2c(nnn2CC(C)(C)C)c1Br` (centres unmarked) [Example 151, 1-(3-{[4-bromo-1-(2,2-dimethylpropyl)-1H-benzotriazol-5-yl]oxy}pyridin-2-yl)ethanol]: the 50% effective concentration (EC50) amounted to 122 nM.
For the compound `Cn1cc(-c2cnc(Oc3ccc4c(nnn4CC(C)(C)C)c3Br)c(C#N)c2)cn1` [Example 169, 2-{[4-bromo-1-(2,2-dimethylpropyl)-1H-benzotriazol-5-yl]oxy}-5-(1-methyl-1H-pyrazol-4-yl)pyridine-3-carbonitrile], the 50% effective concentration (EC50) was found to be 425 nM.
The figure for `CCC(O)c1cccnc1Oc1ccc2c(nnn2CC(C)(C)C)c1Br` (centres unmarked) [Example 184, 1-(2-{[4-bromo-1-(2,2-dimethylpropyl)-1H-benzotriazol-5-yl]oxy}pyridin-3-yl)propan-1-ol] is 21 nM; for `FC1(F)CCN(Cc2cccnc2Oc2ccc3c(nnn3CC3CC3)c2Br)CC1` [Example 194, 4-Bromo-1-(cyclopropylmethyl)-5-({3-[(4,4-difluoropiperidin-1-yl)methyl]pyridin-2-yl}oxy)-1H-benzotriazole] it is 32 nM.
With `CS(=O)(=O)N1CCN(Cc2cc(Cl)cnc2Oc2ccc3c(nnn3CC3CC3)c2Br)CC1` [Example 198, 4-bromo-5-[(5-chloro-3-{[4-(methylsulfonyl)piperazin-1-yl]methyl}pyridin-2-yl)oxy]-1-(cyclopropylmethyl)-1H-benzotriazole], the concentration for a half-maximal effect (EC50) is 3 nM.
The figure for `FC1(F)CCCN(Cc2cccnc2Oc2ccc3c(nnn3CC3CC3)c2Br)C1` [Example 204, 4-bromo-1-(cyclopropylmethyl)-5-({3-[(3,3-difluoropiperidin-1-yl)methyl]pyridin-2-yl}oxy)-1H-benzotriazole] is 39 nM; for `FC(F)(F)CNCc1cccnc1Oc1ccc2c(nnn2CC2CC2)c1Br` [Example 213, N-[(2-{[4-bromo-1-(cyclopropylmethyl)-1H-benzotriazol-5-yl]oxy}pyridin-3-yl)methyl]-2,2,2-trifluoroethanamine] it is 40 nM; for `FCC1CCN(Cc2cccnc2Oc2ccc3c(nnn3CC3CC3)c2Br)C1` (centres unmarked) [Example 215, 4-bromo-1-(cyclopropylmethyl)-5-[(3-{[3-(fluoromethyl)pyrrolidin-1-yl]methyl}pyridin-2-yl)oxy]-1H-benzotriazole] it is 129 nM.
With `CC1(O)CCN(Cc2cccnc2Oc2ccc3c(nnn3CC3CC3)c2Br)CC1` [Example 227, 1-[(2-{[4-bromo-1-(cyclopropylmethyl)-1H-benzotriazol-5-yl]oxy}pyridin-3-yl)methyl]-4-methylpiperidin-4-ol], the EC50 was determined as 705 nM.
Regarding `CC(=O)N1CCCN(Cc2cc(F)cnc2Oc2ccc3c(nnn3CC3CC3)c2Br)CC1` [Example 253, 5-({3-[(4-acetyl-1,4-diazepan-1-yl)methyl]-5-fluoropyridin-2-yl}oxy)-4-bromo-1-(cyclopropylmethyl)-1H-benzotriazole], the EC50 amounted to 52 nM.
The figure for `CS(=O)(=O)N1CCCN(Cc2cc(Cl)cnc2Oc2ccc3c(nnn3CC3CC3)c2Br)CC1` [Example 280, 4-bromo-5-[(5-chloro-3-{[4-(methylsulfonyl)-1,4-diazepan-1-yl]methyl}pyridin-2-yl)oxy]-1-(cyclopropylmethyl)-1H-benzotriazole] is 8 nM; for `O=C(NCc1cc(F)cnc1Oc1ccc2c(nnn2CC2CC2)c1Br)c1ccon1` [Example 284, N-[(2-{[4-bromo-1-(cyclopropylmethyl)-1H-benzotriazol-5-yl]oxy}-5-fluoropyridin-3-yl)methyl]isoxazole-3-carboxamide] it is 64 nM; for `CC(C)(C)OC(=O)N1C[C@@H]2C[C@H]1CN2Cc1cc(Cl)cnc1Oc1ccc2c(nnn2CC2CC2)c1Br` [Example 297, tert-butyl(1S,4S)-5-[(2-{[4-bromo-1-(cyclopropylmethyl)-1H-benzotriazol-5-yl]oxy}-5-chloropyridin-3-yl)methyl]-2,5-diazabicyclo[2.2.1] heptane-2-carboxylate] it is 19 nM.
As to `Clc1cnc(Oc2ccc3c(nnn3CC3CC3)c2Br)c(CN2CCN(c3nccs3)CC2)c1` [Example 320, 4-bromo-5-[(5-chloro-3-{[4-(1,3-thiazol-2-yl)piperazin-1-yl]methyl}pyridin-2-yl)oxy]-1-(cyclopropylmethyl)-1H-benzotriazole], the concentration for a half-maximal effect (EC50) came out at 5 nM.
The same measure for `OCC1C2CN(Cc3cc(Cl)cnc3Oc3ccc4c(nnn4CC4CC4)c3Br)CC12` (centres unmarked) [Example 357, {3-[(2-{[4-bromo-1-(cyclopropylmethyl)-1H-benzotriazol-5-yl]oxy}-5-chloropyridin-3-yl)methyl]-3-azabicyclo[3.1.0]hex-6-yl}methanol]: 13 nM; for `CS(=O)(=O)NC1CCN(Cc2cc(Cl)cnc2Oc2ccc3c(nnn3CC3CC3)c2Br)CC1` [Example 365, N-{1-[(2-{[4-bromo-1-(cyclopropylmethyl)-1H-benzotriazol-5-yl]oxy}-5-chloropyridin-3-yl)methyl]piperidin-4-yl}methanesulfonamide]: 8 nM.
The same measure for `Clc1cnc(Oc2ccc3c(nnn3CC3CC3)c2Br)c(CN2CC(n3cccn3)C2)c1` [Example 384, 4-bromo-5-[(5-chloro-3-{[3-(1H-pyrazol-1-yl)azetidin-1-yl]methyl}pyridin-2-yl)oxy]-1-(cyclopropylmethyl)-1H-benzotriazole]: 8 nM.
The same measure for `CC(C)(O)c1cccnc1Oc1ccc2c(nnn2CC2CC2)c1Cl` [Example 396, 2-(2-{[4-chloro-1-(cyclopropylmethyl)-1H-benzotriazol-5-yl]oxy}pyridin-3-yl)propan-2-ol]: 556 nM.
For `OC(CF)(CF)c1cccnc1Oc1ccc2c(nnn2CC2CC2)c1Cl` [Example 398, 2-(2-{[4-chloro-1-(cyclopropylmethyl)-1H-benzotriazol-5-yl]oxy}pyridin-3-yl)-1,3-difluoropropan-2-ol], the EC50 worked out at 556 nM.
The figure for `OC1(c2cccnc2Oc2ccc3c(nnn3CC3CC3)c2Cl)CCC(C(F)(F)F)CC1` (centres unmarked) [Example 411, 1-(2-{[4-chloro-1-(cyclopropylmethyl)-1H-benzotriazol-5-yl]oxy}pyridin-3-yl)-4-(trifluoromethyl) cyclohexanol] is 257 nM.
On to `OC(c1cccnc1Oc1ccc2c(nnn2CC2CC2)c1C(F)(F)F)C1CC1` (centres unmarked) [Example 421, cyclopropyl(2-{[1-(cyclopropylmethyl)-4-(trifluoromethyl)-1H-benzotriazol-5-yl]oxy}pyridin-3-yl)methanol], for which the EC50 came to 20 nM.
The figure for `CC(C)(C)Cn1nnc2c(Br)c(Oc3ccncc3)ccc21` [compound 423, 4-bromo-1-(2,2-dimethylpropyl)-5-pyridin-4-yloxy-1H-benzotriazole] is 141 nM.
